In patent US5422341A, “Motilin-like polypeptides with gastrointestinal motor stimulating activity” (Ohmeda Pharmaceutical Products Division Inc., priority 1993, dated 1995):
Counter-ions that a name gives are not always drawn. Square brackets hold non-standard residues; d marks the D form. Peptide text beside a SMILES is read from it. * marks the point of attachment. X1 = C[N+](C)(C)[C@@H](Cc1ccccc1)C(=O)*; NMe2Phe = CN(C)[C@@H](Cc1ccccc1)C(=O)*; NMeF = CN[C@@H](Cc1ccccc1)C(=O)O

Experiments:
[1] = format: in vitro ADME, hog; settings: pH 7
Method: Like most small linear polypeptides, motilin is believed to be metabolized lo by the brush border cells of the kidney. Therefore, kidney homogenate was chosen as the model system for assessing the relative in vivo biostability of the peptides of this invention. All peptides to be studied were incubated in hog kidney (Pel Freeze, Inc., Rogers, Ark.) (2% w/v; final volume=4 ml; buffer=HEPES pH 7.0) at 25° C. Both initial substrate concentration and internal standard (Fmoc-Gly) concentration were 0.5 mg/ml. In order to determine suitable incubation times and sampling intervals, two experiments were conducted with each polypeptide. The first run served as a rough estimate of peptide stability. All sampling was performed in duplicate. Sample volume was 180 μl.
Sample clean-up was performed by addition of 20 μl of 100% TCA (final volume=200 μl; final TCA concentration=10%). The sample was vortexed for from 5 to 10 seconds to ensure equilibration, then centrifuged to spin out the precipitated proteins. Analysis was carried out on a Waters HPLC system with a WISP autoinjector, a 5μ Vydac C-18 analytical column, and a Waters 481 UV detector set at 214 nm. Injection volume was 80 μl. Initial solvent conditions were […] in Milli-Q water with a 35 minute gradient running to 63% acetonitrile/37% (0.1%) TFA at 1 ml/min.
Polypeptide substrate and metabolite peaks were ratioed to the internal standard and the duplicate sample ratios were averaged. The avenge ratio for the peptide substrate was expressed as a percentage and plotted versus time. First-order kinetics was assumed for data treatment. The rate of disappearance of the substrate was calculated using the Enzfitter program (Biosoft). Relative half-lives were determined from the relationship: […]

[2] = test system: canine gastrointestinal tract; assay: Contractile activity in the canine gastrointestinal tract; format: in vivo, dog; settings: anesthetized dogs, intra-arterial injection to a duodenal segment; amount giving 50% of the calibration response to field stimulation
Method: Mongrel dogs of either sex were anesthetized with sodium pentobarbital 65 mg/kg intravenously. A mid-line incision was made in the abdomen. A duodenal segment was located, the terminal arteries to that segment were identified, and the closest possible artery of the appropriate size was rubbed clean of fat and fascia. A needle of suitable diameter was bent at an angle and the tip inserted in the cleaned artery. The needle was held in position in the artery for approximately 30 seconds until vascular spasm has relaxed and then a catheter assembly was inserted into the artery and tied into position with 000 silk sutures. The fine polyethylene catheter (10-15 cm) was cut to a point at one end with a needle inserted at the other end. The hub of the needle was fitted with a 3-way stopcock and the catheter assembly was filled with heparinized Krebs Ringer bicarbonate containing 10 mM glucose. A bolus of Krebs (free of air) was injected into the arterial catheter and the distribution of blanching in the segment noted. If the area was too large, collateral arteries may be tied off as long as circulation to the area was maintained. A Bass type strain gauge was then sutured to the serosa, and oriented so that circular muscle contractions can be recorded on a Beckman R611 dynograph. Silver wire electrodes were inserted subserosally on either side of the strain gauge and were connected through stimulus isolation units to a Grass S88 electrical stimulator. Electrical field stimulation was applied at 40 V 0.5 ms and 5 pps and the amplitude of the pen recorder was set to contain the contractile response.
All peptides to be injected were dissolved in Krebs and serial dilutions were prepared so that for any concentration the maximum volume to be injected was 1 ml. All solutions except stock Krebs were held on ice for the day of the experiment and discarded at the end of the day. For determination of a dose-response curve, the site was first injected with a bolus of approximately 1 ml of heparinized Krebs to provide a flush control. Peptide agonists (in volumes of 1 ml flushed with 1 ml of Krebs) were injected in logarithmic increments until a response which was maximal in amplitude was obtained. The injection site was then flushed with Krebs containing 0.1% BSA to displace any peptide remaining in the arterial line. For peptides acting at the motilin receptor, care was taken not to inject supramaximal doses as these will induce tachyphylaxis. Therefore, as responses become apparent, 0.3 or 0.5 log unit increments were used. A site was used for a dose-response determination only every 1/2 to 1 hour.
The amplitude of the calibration response to field stimulation in each site was measured and used as 100% for that site. The amplitude of the response to the agonist at each dose was determined, calculated as a % of the calibration response and plotted against the concentration. The ED50 of the response represents the amount of agonist required to produce a response which was 50% of the calibration response.

motilin receptor = target: T1, motilin receptor (Oryctolagus cuniculus, UniProt G1T803); assay: Determination of motilin receptor binding affinity (displacement of [125I-Tyr7, Nle13]motilin(porcine)); design: species or system rabbit; settings: negative logarithm of the concentration displacing 50% of [125I-Tyr7, Nle13]motilin(porcine) from rabbit antral smooth muscle membranes; read-out: pIC50 (converted)
T1 construct: from tissue; host or cells: rabbit antral smooth muscle membranes
Method: The motilin receptor binding affinity of the peptides of this invention was determined by using the general procedure of Bormans, Peelers and Vantrappen, Regul. […] Fitting was performed using the iterative least-squares procedure of the SAS-software package (SAS Institute, Inc., Cary, N.C., USA).

[3] = target: segments of rabbit duodenum (Oryctolagus cuniculus, UniProt G1T803); assay: Rabbit duodenal smooth muscle strip tissue bath assay; format: cell-based; settings: negative logarithm of the dose giving 50% of the maximal response to motilin; isotonic contraction of rabbit duodenum segments
Method in brief: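 Isotonic contraction of rabbit duodenal segments after 1 h equilibration and 10^-4 M acetylcholine challenge; cumulative compound curve over 10^-11 to 10^-4 M, then 10^-7 M motilin. Runs discarded if final acetylcholine response differed >5%. EC50 at 50% of maximal motilin response, reported as pEC50.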

segments of rabbit duodenum, sequence (G1T803 1-400): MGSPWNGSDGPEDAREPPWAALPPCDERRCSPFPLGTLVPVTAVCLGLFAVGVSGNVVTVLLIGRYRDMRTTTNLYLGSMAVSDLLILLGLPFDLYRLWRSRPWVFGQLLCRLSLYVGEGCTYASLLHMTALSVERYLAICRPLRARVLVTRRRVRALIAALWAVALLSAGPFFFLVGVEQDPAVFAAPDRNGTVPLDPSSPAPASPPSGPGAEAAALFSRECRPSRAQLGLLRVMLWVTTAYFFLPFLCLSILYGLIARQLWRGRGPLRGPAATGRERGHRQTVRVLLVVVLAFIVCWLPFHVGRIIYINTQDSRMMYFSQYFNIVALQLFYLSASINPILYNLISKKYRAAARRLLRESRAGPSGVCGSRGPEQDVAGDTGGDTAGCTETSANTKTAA
T1 sequence (G1T803 1-400): as above

Structure (SMILES): CC[C@H](C)[C@H](NC(=O)[C@@H]1CCCN1C(=O)[C@@H](NC(=O)[C@H](Cc1ccccc1)NC)C(C)C)C(=O)N[C@@H](Cc1ccccc1)C(=O)N[C@H](C(=O)N[C@@H](Cc1ccc(O)cc1)C(=O)NCC(=O)N[C@@H](CCC(=O)O)C(=O)N[C@@H](CC(C)C)C(=O)N[C@@H](CCC(N)=O)C(=O)N[C@H](CCCNC(=N)N)C(=O)N[C@@H](CC(C)C)C(=O)N[C@@H](CCCCN)C(N)=O)[C@@H](C)O (H-[NMeF]VPIFTYGELQ[dR]LK-NH2)
- T1/2 [1]: 41
- ED50 [2]: 0.025 nmol

Structure (SMILES): CC[C@H](C)[C@H](NC(=O)[C@@H]1CCCN1C(=O)[C@@H](NC(=O)[C@H](Cc1ccccc1)N(C)C)C(C)C)C(=O)N[C@@H](Cc1ccccc1)C(=O)N[C@H](C(=O)N[C@@H](Cc1ccc(O)cc1)C(=O)NCC(=O)N[C@@H](CCC(=O)O)C(=O)N[C@@H](CC(C)C)C(=O)N[C@@H](C)C(=O)N[C@H](CCCNC(=N)N)C(=O)N[C@@H](CC(C)C)C(=O)N[C@@H](CCCCN)C(N)=O)[C@@H](C)O (NMe2Phe-VPIFTYGELA[dR]LK-NH2)
- IC50 (motilin receptor): 1.23 nM
- ED50 [2]: 0.003 nmol
- pEC50 [3]: 7.64

Structure (SMILES): CC[C@H](C)[C@H](NC(=O)[C@@H]1CCCN1C(=O)[C@@H](NC(=O)[C@H](Cc1ccccc1)N(C)C)C(C)C)C(=O)N[C@@H](Cc1ccccc1)C(=O)N[C@H](C(=O)N[C@@H](Cc1ccc(O)cc1)C(=O)NCC(=O)N[C@@H](CCC(=O)O)C(=O)N[C@@H](CC(C)C)C(=O)N[C@@H](CCC(N)=O)C(=O)N[C@H](CCCNC(=N)N)C(=O)N[C@@H](CC(C)C)C(=O)N[C@@H](CCCCN)C(N)=O)[C@@H](C)O (NMe2Phe-VPIFTYGELQ[dR]LK-NH2)
- IC50 (motilin receptor): 1.17 nM
- ED50 [2]: 0.002 nmol
- pEC50 [3]: 7.73

Structure (SMILES): CC[C@H](C)[C@H](NC(=O)[C@H](C)NC(=O)[C@@H](NC(=O)[C@H](Cc1ccccc1)[N+](C)(C)C)C(C)C)C(=O)N[C@@H](Cc1ccccc1)C(=O)N[C@H](C(=O)N[C@@H](Cc1ccc(O)cc1)C(=O)NCC(=O)N[C@@H](CCC(=O)O)C(=O)N[C@@H](CC(C)C)C(=O)N[C@@H](C)C(=O)N[C@H](CCCNC(=N)N)C(=O)N[C@@H](CC(C)C)C(=O)N[C@@H](CCCCN)C(N)=O)[C@@H](C)O (X1-VAIFTYGELA[dR]LK-NH2)
- IC50 (motilin receptor): 1.91 nM
- ED50 [2]: 0.001 nmol
- pEC50 [3]: 7.59

Structure (SMILES): CC[C@H](C)[C@H](NC(=O)[C@H](C)NC(=O)[C@@H](NC(=O)[C@H](Cc1ccccc1)[N+](C)(C)C)C(C)C)C(=O)N[C@@H](Cc1ccccc1)C(=O)N[C@H](C(=O)N[C@@H](Cc1ccc(O)cc1)C(=O)NCC(=O)N[C@@H](CCC(=O)O)C(=O)N[C@@H](CC(C)C)C(=O)N[C@@H](C)C(=O)N[C@H](CCCNC(=N)N)C(=O)N[C@@H](CC(C)C)C(=O)N[C@H](CCCCN)C(N)=O)[C@@H](C)O (X1-VAIFTYGELA[dR]L[dK]-NH2)
- IC50 (motilin receptor): 1.15 nM
- ED50 [2]: 0.007 nmol
- pEC50 [3]: 7.55

Structure (SMILES): CC[C@H](C)[C@H](NC(=O)[C@H](C)NC(=O)[C@@H](NC(=O)[C@H](Cc1ccccc1)[N+](C)(C)C)C(C)C)C(=O)N[C@@H](Cc1ccccc1)C(=O)N[C@H](C(=O)N[C@@H](Cc1ccc(O)cc1)C(=O)NCC(=O)N[C@@H](CCC(=O)O)C(=O)N[C@@H](CC(C)C)C(=O)N[C@@H](CCC(N)=O)C(=O)N[C@H](CCCNC(=N)N)C(=O)N[C@@H](CC(C)C)C(=O)N[C@@H](CCCCN)C(N)=O)[C@@H](C)O (X1-VAIFTYGELQ[dR]LK-NH2)
- IC50 (motilin receptor): 1.91 nM
- ED50 [2]: 0.89 nmol
- pEC50 [3]: 7.32

Structure (SMILES): CC[C@H](C)[C@H](NC(=O)[C@@H]1CCCN1C(=O)[C@@H](NC(=O)[C@H](Cc1ccccc1)[N+](C)(C)C)C(C)C)C(=O)N[C@@H](Cc1ccccc1)C(=O)N[C@H](C(=O)N[C@@H](Cc1ccc(O)cc1)C(=O)NCC(=O)N[C@@H](CCC(=O)O)C(=O)N[C@@H](CC(C)C)C(=O)N[C@@H](C)C(=O)N[C@H](CCCNC(=N)N)C(=O)N[C@@H](CC(C)C)C(=O)N[C@@H](CCC(N)=O)C(N)=O)[C@@H](C)O (X1-VPIFTYGELA[dR]LQ-NH2)
- T1/2 [1]: 131.9
- ED50 [2]: 0.026 nmol

Structure (SMILES): CC[C@H](C)[C@H](NC(=O)[C@@H]1CCCN1C(=O)[C@@H](NC(=O)[C@H](Cc1ccccc1)[N+](C)(C)C)C(C)C)C(=O)N[C@@H](Cc1ccccc1)C(=O)N[C@H](C(=O)N[C@@H](Cc1ccc(O)cc1)C(=O)NCC(=O)N[C@@H](CCC(=O)O)C(=O)N[C@@H](CC(C)C)C(=O)N[C@@H](CCC(N)=O)C(=O)N[C@H](CCCNC(=N)N)C(=O)N[C@@H](CC(C)C)C(=O)N[C@@H](CCC(N)=O)C(N)=O)[C@@H](C)O (X1-VPIFTYGELQ[dR]LQ-NH2)
- T1/2 [1]: 95
- ED50 [2]: 0.017 nmol

Structure (SMILES): CC[C@H](C)[C@H](NC(=O)[C@@H]1CCCN1C(=O)[C@@H](NC(=O)[C@H](Cc1ccccc1)[N+](C)(C)C)C(C)C)C(=O)N[C@@H](Cc1ccccc1)C(=O)N[C@H](C(=O)N[C@@H](Cc1ccc(O)cc1)C(=O)NCC(=O)N[C@@H](CCC(=O)O)C(=O)N[C@@H](CC(C)C)C(=O)N[C@@H](CCC(N)=O)C(=O)N[C@H](CCCNC(=N)N)C(=O)N[C@@H](CC(C)C)C(=O)N[C@H](CCC(N)=O)C(N)=O)[C@@H](C)O (X1-VPIFTYGELQ[dR]L[dQ]-NH2)
- IC50 (motilin receptor): 1.95 nM
- T1/2 [1]: 104
- pEC50 [3]: 7.39

Structure (SMILES): CC[C@H](C)[C@H](NC(=O)[C@H](C)NC(=O)[C@@H](NC(=O)[C@H](Cc1ccccc1)NC)C(C)C)C(=O)N[C@@H](Cc1ccccc1)C(=O)N[C@H](C(=O)N[C@@H](Cc1ccc(O)cc1)C(=O)NCC(=O)N[C@@H](CCC(=O)O)C(=O)N[C@@H](CC(C)C)C(=O)N[C@@H](C)C(=O)N[C@H](CCCNC(=N)N)C(=O)N[C@@H](CC(C)C)C(=O)N[C@H](CCCCN)C(N)=O)[C@@H](C)O [[1-N-Methylphenylalanine, 3-alaninc, 11-alanine, 12-D-arginine, 13-Leucine, 14-D-lysine]motilin-(1-14)-peptide Amide (Porcine) Tris-trifluoroacetate Salt] (H-[NMeF]VAIFTYGELA[dR]L[dK]-NH2)
- IC50 (motilin receptor): 0.447 nM
- ED50 [2]: 0.024 nmol
- pEC50 [3]: 7.80

Structure (SMILES): CC[C@H](C)[C@H](NC(=O)[C@@H]1CCCN1C(=O)[C@@H](NC(=O)[C@H](Cc1ccccc1)NC)C(C)C)C(=O)N[C@@H](Cc1ccccc1)C(=O)N[C@H](C(=O)N[C@@H](Cc1ccc(O)cc1)C(=O)NCC(=O)N[C@@H](CCC(=O)O)C(=O)N[C@@H](CC(C)C)C(=O)N[C@@H](CCC(N)=O)C(=O)N[C@@H](CCCNC(=N)N)C(=O)N[C@@H](CC(C)C)C(=O)N[C@@H](CCC(N)=O)C(=O)O)[C@@H](C)O [[N-MePhe^1, Leu^13]pMOT(1-14)] (H-[NMeF]VPIFTYGELQRLQ-OH)
- IC50 (motilin receptor): 2.63 nM
- T1/2 [1]: 12.8
- pEC50 [3]: 7.64
